Experimental data reported in patent US20240342330A1, “METHOD FOR THE PREPARATION OF SURFACES, PARTICULARLY OF CARDIAC PROSTHESIS” (BIOCOMPATIBILITY INNOVATION S.R.L., priority 2021, published 2024).

How the values were obtained:
Assay in all cases: Bactericidal activity suspension assay
Format in all cases: cell-based
Conditions in all cases: 24 hours incubation
[1] = system: Aspergillus brasiliensis ATCC 16404
[2] = system: Enterococcus faecalis ATCC 29212
[3] = system: Mycobacterium chelonae ATCC 35752
[4] = system: Listeria monocytogenes ATCC 19111
[5] = system: Streptococcus viridans ATCC 6249
[6] = system: Pseudomonas aeruginosa ATCC 9027
[7] = system: Salmonella enterica typhimurium ATCC 14028
[8] = system: Candida albicans ATCC 10231
[9] = system: Staphylococcus aureus ATCC 6538

## CCO [ETHANOL, ethanol]
[1]
  BACTERICIDAL ACTIVITY %: 90%
[2]
  BACTERICIDAL ACTIVITY %: 0%
[3]
  BACTERICIDAL ACTIVITY %: 99%
[4]
  BACTERICIDAL ACTIVITY %: 0%
[5]
  BACTERICIDAL ACTIVITY %: 90%
[6]
  BACTERICIDAL ACTIVITY %: 99.99%
[7]
  BACTERICIDAL ACTIVITY %: 90%
[8]
  BACTERICIDAL ACTIVITY %: 99.9%
[9]
  BACTERICIDAL ACTIVITY %: 99%
